Laboratory results published in patent publication US12281114B2, “NK3 modulators and uses thereof” (Kallyope, Inc., priority 2023, dated 2025).

Tests used:
[1] = biological target: T1, human NK3 (Homo sapiens, UniProt P29371); assay: FLIPR calcium assay in antagonist mode (NKB EC70 challenge); type: cell-based; conditions: stable cell line expressing human recombinant NK3; antagonist mode vs EC70 of NKB agonist
T1 sequence (P29371 1-465): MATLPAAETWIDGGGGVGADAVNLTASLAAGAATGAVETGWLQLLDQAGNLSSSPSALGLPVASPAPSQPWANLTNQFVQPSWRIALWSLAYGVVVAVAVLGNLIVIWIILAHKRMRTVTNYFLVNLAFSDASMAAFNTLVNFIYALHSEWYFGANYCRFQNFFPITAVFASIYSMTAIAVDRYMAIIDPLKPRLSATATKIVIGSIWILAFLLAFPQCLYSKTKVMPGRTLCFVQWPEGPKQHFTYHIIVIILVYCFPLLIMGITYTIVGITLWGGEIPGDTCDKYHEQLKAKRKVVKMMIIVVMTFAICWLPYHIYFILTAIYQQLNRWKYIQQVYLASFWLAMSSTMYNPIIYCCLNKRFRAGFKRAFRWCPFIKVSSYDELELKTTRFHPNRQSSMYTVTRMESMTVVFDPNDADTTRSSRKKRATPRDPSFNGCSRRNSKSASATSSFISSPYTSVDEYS
How it was run: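 Recombinant human NK3 stable cells loaded with Calcium 6 dye were given compound, read for 10 min, then challenged with NKB at its predetermined EC70 and read 10 min by FLIPR. The second peak minus baseline was normalized to 10 μM and 0 μM antagonist controls, and fitted for IC50 and efficacy.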

[2] = test system: acute nitroglycerin (NTG) migraine model in rats; assay: Acute nitroglycerin (NTG) rat migraine model, periorbital von Frey threshold; type: in vivo; conditions: male Sprague Dawley rats, 10 mg/kg NTG i.p., 30 mg/kg test compound, 90 min; 50% periorbital threshold after compound / baseline x 100
Method: An acute nitroglycerin (NTG) model was used to assess migraine efficacy in rats (for a review see: Sureda-Gibert, P, Neurobiol Pain. 2022 August-December; 12: 100105). Briefly, male Sprague Dawley rats, 8-weeks old (Charles River Laboratories), were pair-housed in a 12-h light cycle room upon facility arrival and left to acclimate for a minimum of 72 h. Animals were provided standard rodent chow (PicoLab Rodent Diet, 5053) and water ad libitum. Following the acclimation period, rats underwent a single behavioral testing apparatus acclimation. Rats were left to freely move and habituate for a minimum of 20 min. The testing apparatus used was a Multiple Configuration Animal Enclosure (Ugo Basile, 37000-007) placed on a self-standing table with a mesh-perforated bottom.
Periorbital threshold was measured using the up-down method (Chaplan, S. R., et al., J Neurosci Methods, 1994 July; 53(1):55-63), in which von Frey filaments (Ugo Basile, 37450-275) of increasing forces (0.4-15 g) were applied to the periorbital region until an application of a filament evoked a response, typically indicated by a rapid withdrawal response or paw swipe to the periorbital region. Once a response was observed, four more readings were obtained following the first change of direction to determine the withdrawal threshold close to 50%. The 50% threshold was then calculated using the following formula: 50% threshold (g)=10^(X+kd)/10^4, where X=the value, in log units, of the final von Frey filament, k=tabular value for the response pattern, and d=the average increment, in log units, between von Frey filaments.
Following acclimation, a baseline assessment was performed, and rats were then randomized into balanced treatment groups using baseline periorbital threshold measurements. On the day of the experiment, rats (n=12/group) were weighed and administered 10 mg/kg NTG (2 mg/mL in 0.9% saline; Henry Schein, NDC-0517-4810-25) by intraperitoneal injection, immediately followed by their assigned compound treatment of either vehicle (0.25% methyl cellulose, 5% Tween 80, 0.02% sodium dodecyl sulfate (SDS) in Hanks' Buffered Salt Solution with Ca^2+ and Mg^2+), 10 mg/kg sumatriptan as a positive control (2 mg/mL in vehicle; Ambeed, A260899-1g) or 30 mg/kg test compound (10 mg/mL in vehicle).
Approximately 70 min post dosing, animals were placed in the behavioral testing apparatus and allowed to habituate to individual enclosures for a minimum of 20 min prior to von Frey assessment. Von Frey measurements were then recorded at 90 and 120. Upon final measurement, rats were immediately euthanized via CO2 asphyxiation followed by exsanguination. Blood was collected in lithium-heparin serum-separating tubes (BD, 365985) and processed for serum collection. Serum samples were then stored at −80° C.
Migraine efficacy (%) was calculated by dividing the 50% threshold (g) following administration of test compound by the baseline 50% threshold (g) and then multiplying by 100.

[3] = biological target: T2, P-glycoprotein (P-gp) (Homo sapiens, UniProt P08183); assay: P-gp substrate assessment in MDR1-MDCK II cells; type: in vitro ADME; conditions: dog, MDCK-MDR1, pH 7.4
T2 construct: expressed in transfected cells; host or cells: MDR1-MDCK II
T2 sequence (P08183 whole entry): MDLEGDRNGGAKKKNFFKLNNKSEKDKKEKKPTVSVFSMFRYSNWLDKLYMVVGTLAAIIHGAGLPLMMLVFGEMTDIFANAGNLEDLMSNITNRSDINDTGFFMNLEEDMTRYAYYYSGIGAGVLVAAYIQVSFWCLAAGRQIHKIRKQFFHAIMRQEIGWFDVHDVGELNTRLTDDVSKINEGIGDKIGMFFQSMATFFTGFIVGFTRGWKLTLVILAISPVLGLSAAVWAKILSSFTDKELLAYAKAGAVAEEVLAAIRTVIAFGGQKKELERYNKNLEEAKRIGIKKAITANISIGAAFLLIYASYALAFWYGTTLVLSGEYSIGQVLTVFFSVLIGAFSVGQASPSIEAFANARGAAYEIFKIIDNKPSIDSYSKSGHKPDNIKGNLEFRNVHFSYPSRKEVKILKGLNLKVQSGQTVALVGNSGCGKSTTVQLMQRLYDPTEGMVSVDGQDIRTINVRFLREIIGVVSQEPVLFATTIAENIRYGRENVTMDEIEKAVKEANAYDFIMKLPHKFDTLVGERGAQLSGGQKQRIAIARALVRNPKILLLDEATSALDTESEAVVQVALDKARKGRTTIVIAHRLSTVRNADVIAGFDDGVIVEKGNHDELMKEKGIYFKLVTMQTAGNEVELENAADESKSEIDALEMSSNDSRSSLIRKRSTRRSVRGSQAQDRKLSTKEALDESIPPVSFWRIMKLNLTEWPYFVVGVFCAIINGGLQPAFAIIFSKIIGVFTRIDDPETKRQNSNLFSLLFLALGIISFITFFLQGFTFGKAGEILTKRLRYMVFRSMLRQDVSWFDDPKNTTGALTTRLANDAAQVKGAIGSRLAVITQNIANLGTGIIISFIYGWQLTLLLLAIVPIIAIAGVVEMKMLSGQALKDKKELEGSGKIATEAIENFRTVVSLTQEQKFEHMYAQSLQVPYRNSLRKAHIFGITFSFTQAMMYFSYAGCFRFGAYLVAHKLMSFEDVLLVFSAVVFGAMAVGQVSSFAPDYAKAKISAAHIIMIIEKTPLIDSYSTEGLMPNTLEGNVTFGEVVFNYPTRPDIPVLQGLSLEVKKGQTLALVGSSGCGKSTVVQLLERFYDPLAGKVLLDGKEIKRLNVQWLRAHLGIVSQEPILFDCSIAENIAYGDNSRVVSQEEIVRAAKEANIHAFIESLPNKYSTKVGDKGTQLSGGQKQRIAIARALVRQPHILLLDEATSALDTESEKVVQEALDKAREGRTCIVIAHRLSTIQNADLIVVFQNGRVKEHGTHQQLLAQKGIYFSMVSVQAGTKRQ
Method: MDR1-MDCK II from passage 5-35 were used for P-gp substrate assessment studies. Briefly, test compounds were diluted with transport buffer (HBSS with 10 mM HEPES, pH 7.4) from stock solution to a concentration of 2.00 μM (DMSO<1%) and applied to the apical or basolateral side of the cell monolayer. […] Compounds were quantified by LC/MS/MS analysis based on the peak area ratio of analyte/internal standard. The efflux ratio of each compound was determined according to the following equation: Efflux Ratio=Papp (BA)/Papp (AB).

Compound	IC50 [1] [nM]	efflux ratio at 150 min, 2 μM [3]	Efficacy (%) [2] [%]
Cn1cc(-c2cccc(F)c2-c2nc3cc(C(=O)N[C@]45CC[C@](CO)(C4)OC5)ccn3c2Cl)c(F)n1 (single isomer, unassigned; second eluting) [Compound 920, 3-chloro-2-(2-fluoro-6-(3-fluoro-1-methyl-1H-pyrazol-4-yl)phenyl)-N-(1-(hydroxymethyl)-2-oxabicyclo[2.2.1]heptan-4-yl)imidazo[1,2-a]pyridine-7-carboxamide, second eluting enantiomer]	1.06	–	100
Cc1nn(C)cc1-c1ccccc1-c1nc2cc(C(=O)N[C@@H]3CO[C@H]4[C@@H]3OC[C@H]4O)ccn2c1Cl [Compound 7, 3-chloro-2-(2-(1,3-dimethyl-1H-pyrazol-4-yl)phenyl)-N-((3R,3aR,6R,6aR)-6-hydroxyhexahydrofuro[3,2-b]furan-3-yl)imidazo[1,2-a]pyridine-7-carboxamide]	1.21	32.7	81
Cc1nn(C)cc1-c1cc(F)ccc1-c1nc2cc(C(=O)N[C@@H]3CO[C@H]4[C@@H]3OC[C@H]4O)ccn2c1Cl [Compound 16, 3-chloro-2-(2-(1,3-dimethyl-1H-pyrazol-4-yl)-4-fluorophenyl)-N-((3R,3aR,6R,6aR)-6-hydroxyhexahydrofuro[3,2-b]furan-3-yl)imidazo[1,2-a]pyridine-7-carboxamide]	–	–	82
Cc1nn(C)cc1-c1cc(F)cc(F)c1-c1nc2cc(C(=O)N[C@@H]3CO[C@H]4[C@@H]3OC[C@H]4O)ccn2c1Cl [Compound 787, 3-chloro-2-(2-(1,3-dimethyl-1H-pyrazol-4-yl)-4,6-difluorophenyl)-N-((3R,3aR,6R,6aR)-6-hydroxyhexahydrofuro[3,2-b]furan-3-yl)imidazo[1,2-a]pyridine-7-carboxamide]	1.51	–	70
Cn1cc(-c2cccc(F)c2-c2nc3cc(C(=O)NC45COC(C)(C4)C5)ccn3c2C#N)c(F)n1 [Compound 845, 3-cyano-2-(2-fluoro-6-(3-fluoro-1-methyl-1H-pyrazol-4-yl)phenyl)-N-(1-methyl-2-oxabicyclo[2.1.1]hexan-4-yl)imidazo[1,2-a]pyridine-7-carboxamide]	2.61	–	92
Cn1cc(-c2cccc(F)c2-c2nc3cc(C(=O)N4CCC5(CC4)CC(C)(O)C5)ccn3c2Cl)cn1 [Compound 915, (3-chloro-2-(2-fluoro-6-(1-methyl-1H-pyrazol-4-yl)phenyl)imidazo[1,2-a]pyridin-7-yl)(2-hydroxy-2-methyl-7-azaspiro[3.5]nonan-7-yl)methanone]	4.22	–	92

Continued, in another order:

IC50 [1] [nM]	efflux ratio at 150 min, 2 μM [3]	Compound	Efficacy (%) [2] [%]
1.56	–	Cn1cc(-c2cccc(F)c2-c2nc3cc(C(=O)N[C@H]4CC5(C4)C[C@](C)(O)C5)ccn3c2Cl)c(F)n1 (stereo partly drawn) [Compound 928, cis 3-chloro-2-(2-fluoro-6-(3-fluoro-1-methyl-1H-pyrazol-4-yl)phenyl)-N-(6-hydroxy-6-methylspiro[3.3]heptan-2-yl)imidazo[1,2-a]pyridine-7-carboxamide]	–
2.07	–	Cn1cc(-c2cccc(F)c2-c2nc3cc(C(=O)N[C@H]4CC5(C4)C[C@](C)(O)C5)ccn3c2Cl)c(F)n1 (stereo partly drawn) [Compound 929, trans 3-chloro-2-(2-fluoro-6-(3-fluoro-1-methyl-1H-pyrazol-4-yl)phenyl)-N-(6-hydroxy-6-methylspiro[3.3]heptan-2-yl)imidazo[1,2-a]pyridine-7-carboxamide]	–
3	–	Cn1cc(-c2cccc(F)c2-c2nc3cc(C(=O)N[C@H]4CC[C@](C)(O)CC4)ccn3c2C#N)c(F)n1 [Compound 930, 3-cyano-2-(2-fluoro-6-(3-fluoro-1-methyl-1H-pyrazol-4-yl)phenyl)-N-((1r,4r)-4-hydroxy-4-methylcyclohexyl)imidazo[1,2-a]pyridine-7-carboxamide]	–
6.09	–	Cn1cc(-c2ccc(F)c(F)c2-c2nc3cc(C(=O)NC45COC(C)(C4)C5)ccn3c2C#N)c(F)n1 [Compound 932, 3-cyano-2-(2,3-difluoro-6-(3-fluoro-1-methyl-1H-pyrazol-4-yl)phenyl)-N-(1-methyl-2-oxabicyclo[2.1.1]hexan-4-yl)imidazo[1,2-a]pyridine-7-carboxamide]	–
5.66	–	Cn1cc(-c2ccc(F)c(F)c2-c2nc3cc(C(=O)N4CCOCC4)ccn3c2Cl)c(F)n1 [Compound 933, (3-chloro-2-(2,3-difluoro-6-(3-fluoro-1-methyl-1H-pyrazol-4-yl)phenyl)imidazo[1,2-a]pyridin-7-yl)(morpholino)methanone]	–
9.69	–	Cn1cc(-c2cccc(F)c2-c2nc3cc(C(=O)N[C@]45CC[C@](CO)(C4)OC5)ccn3c2Cl)cn1 [Compound 934]	–
